The source made the active and inactive calls.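 How the source made its calls: active means Fitted curve of melting temperature shift crosses the 1.0 threshold at or below the sample's highest valid tested concentration; inconclusive means Flat fit with activity 30 to 70, or invalid fit; inactive means Opposite direction, flat within 30, or no crossing.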
Molecular target: Fibroblast growth factor 22 (Homo sapiens) (UniProt Q9HCT0)
Assay: FGF22 ligand-induced thermal stabilization – biophysical, thermal shift, cherry-pick, FGF22 synaptogenesis inhibitor project, dose response (AID 687022)
Settings: recombinant FGF22 thermal shift, SYPRO orange melting

Sequence of Fibroblast growth factor 22 (Homo sapiens) (Q9HCT0 whole entry, looked up): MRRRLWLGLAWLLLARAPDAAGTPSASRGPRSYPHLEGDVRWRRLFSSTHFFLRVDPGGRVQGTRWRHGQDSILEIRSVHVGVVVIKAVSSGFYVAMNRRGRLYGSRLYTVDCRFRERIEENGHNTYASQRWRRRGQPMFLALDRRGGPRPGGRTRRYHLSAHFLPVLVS

Row | SMILES | AbsAC1 (concentration giving Tm-shift threshold 1.0)
1 | COc1ccc(N2C(=O)C(CC(=O)Nc3ccccc3)N(Cc3ccccn3)C2=S)cc1 (centres undefined) | 9.43 µM
2 | O=C(NCC1CC1)c1onc(CSc2ccc(F)cc2)c1C(=O)NCC1CC1 | 2.58 µM
3 | Nc1cccc(-c2nc3ccc(C(=O)c4ccccc4)cc3[nH]2)c1 | 1.15 µM
4 | Nc1nc(O)c(Sc2ccccc2[N+](=O)[O-])c(=O)[nH]1 | 2.7 µM
5 | O=C1Nc2cc(Cl)c(Cl)cc2N(O)N1c1ccc(Cl)cc1 | 4.98 µM
6 | O=C(CCc1c[nH]c2ccccc12)Nc1ccc(Nc2cccnc2)cc1 | 4.36 µM
7 | O=C(N/N=C/c1c(O)ccc2ccccc12)c1[nH]ncc1Br | 23.7 µM
8 | Cc1cc(C)cc(NS(=O)(=O)c2cc3[nH]c(=O)c(=O)[nH]c3cc2C)c1 | 10.2 µM
9 | O=c1ccc2nc3ccccc3sc-2c1 | 8.27 µM
10 | Cc1onc(-c2ccccc2)c1C(=O)Nc1ncc([N+](=O)[O-])s1 | 17.1 µM
11 | O=[N+]([O-])c1ccc(Nc2ccccc2)nc1 | 5.31 µM
12 | O=[N+]([O-])c1ccc2nc(NS(=O)(=O)c3ccccc3[N+](=O)[O-])sc2c1 | 6.33 µM
13 | O=C(N/N=C/c1ccc(O)c(O)c1)N/N=C/c1ccc(O)c(O)c1 | 7.88 µM
14 | O=C(Nc1cc(Cl)cc(Cl)c1)N[C@@H]1CC[C@@H](CCNS(=O)(=O)c2cccc(F)c2)O[C@@H]1CO | 5.64 µM
15 | CC1([N+](=O)[O-])COP(=O)(NC2CC2)OC1 (centres undefined) | 8.33 µM
16 | CCOC(=O)c1c(C)[nH]c(C)c1C(=O)COC(=O)/C=C/c1ccccc1[N+](=O)[O-] | 23.9 µM
17 | COc1ccc(NC(=O)CN(C)C(=O)c2cn(-c3ccccc3)nc2-c2cccnc2)cc1 | > 38 µM (inactive)
18 | C[C@@H]1CN([C@H](C)CO)S(=O)(=O)c2ccc(C3=CCCC3)cc2O[C@@H]1CN(C)C(=O)Nc1ccc2c(c1)OCO2 | 20.2 µM
19 | Cc1ccccc1-n1c(O)c(/C=N/NC(=O)c2ccccc2O)c(=O)[nH]c1=S | 3.51 µM
20 | O=C(N/N=C/c1ccncc1)c1cccc(N/N=C/c2ccncc2)c1 | 8.51 µM

Row | SMILES | AbsAC1 (concentration giving Tm-shift threshold 1.0)
21 | CC(=O)c1c(C)nc(-c2ccc(OCC(=O)Nc3ccc(F)cc3)cc2)n1O | 16.3 µM
22 | Cn1c(=O)c2c(-c3ccccc3)n(-c3cc(Cl)c([N+](=O)[O-])cc3O)cc2n(C)c1=O | 2.38 µM
23 | CC(=O)Nc1cccc(C(=O)N/N=C/c2c[nH]c3ccccc23)c1 | 2.4 µM
24 | Cc1ccc(NC(=O)O/N=C/c2cccc([N+](=O)[O-])c2)cc1 | 17.8 µM
25 | COc1cccc(NC(=O)N(C)C[C@@H]2Oc3cc(-c4ccccc4F)ccc3S(=O)(=O)N([C@@H](C)CO)C[C@H]2C)c1 | 16.3 µM
26 | COc1cc2cc(NC(C)=O)cc(NCc3ccccc3)c2cc1OC | 8.13 µM
27 | C/C=C/c1ccc2c(c1)O[C@@H](CN(C)C(=O)Nc1cc(F)ccc1F)[C@@H](C)CN([C@H](C)CO)S2(=O)=O | 20.6 µM
28 | CN1C(=O)c2cc(NC(=O)c3cccc(F)c3)ccc2OC[C@H]2O[C@@H](CC(=O)NCc3ccccc3)CC[C@H]21 | 3.24 µM
29 | COc1ccc2c(/C=N/NS(=O)(=O)c3ccc(C)cc3)c[nH]c2c1 | 9.87 µM
30 | O=C(CCc1ccccc1)c1c(O)cc(O)cc1O | > 5 µM (inactive)
31 | CCNC(=O)C[C@@H]1CC[C@H]2[C@H](COc3ccc(NC(=O)Nc4ccc(Cl)cc4)cc3C(=O)N2C)O1 | 6.25 µM
32 | Cc1cccc(NC(=O)c2ccc(-c3ccccc3[N+](=O)[O-])o2)c1 | > 38 µM (inactive)
33 | O=C(NN=Cc1ccc(O)cc1O)c1ccccc1NS(=O)(=O)c1cccs1 | 32.7 µM
34 | C[C@H](CO)N1C[C@H](C)[C@H](CN(C)C(=O)Nc2ccc(C(F)(F)F)cc2)Oc2cc(-c3ccncc3)ccc2S1(=O)=O | 10.3 µM
35 | COc1ccc(-c2csc(NC(=O)CN3C(=O)C4CCCCC4C3=O)n2)c(OC)c1 (centres undefined) | 14.7 µM
36 | O=C(N/N=C/c1ccc(Cl)c(Cl)c1)c1ccc2nc[nH]c2c1 | 2.35 µM
37 | COc1ccc(N2C(=O)C(CC(=O)Nc3ccccc3)N(Cc3ccc4c(c3)OCO4)C2=O)cc1 (centres undefined) | 6.04 µM
38 | CC1CCN(Cc2c(C(=O)N/N=C/c3ccc(OC(C)C)cc3)nnn2-c2nonc2N)CC1 | 14 µM
39 | COc1ccccc1NC(=O)N[C@@H]1CC[C@@H](CCn2cc(-c3ccccc3OC)nn2)O[C@@H]1CO | 4.76 µM
40 | COc1cc(/C=C2/S/C(=N/S(=O)(=O)Cc3ccccc3)NC2=O)c([N+](=O)[O-])cc1OC | 3.72 µM

Row | SMILES | AbsAC1 (concentration giving Tm-shift threshold 1.0)
41 | NC(=O)Nc1ccc(C(=O)OCC(=O)Nc2sccc2C(N)=O)cc1 | 23.8 µM
42 | O=C(Nc1cc(Cl)cc(Cl)c1)N[C@@H]1CC[C@@H](CCNS(=O)(=O)c2cccc(F)c2)O[C@H]1CO | 5.67 µM
43 | C[C@H](CO)N1C[C@H](C)[C@H](CN(C)C(=O)Nc2ccc3c(c2)OCO3)Oc2cc(C3=CCCCC3)ccc2S1(=O)=O | 20.3 µM
44 | CS(=O)(=O)N1CC(=O)N2[C@H](CO)[C@@H](c3ccc(C#CCc4ccccc4)cc3)[C@H]2C1 | 37.5 µM
45 | O=C(Nc1ccc(F)c(Cl)c1)C1CCCN(C2=NS(=O)(=O)c3ccccc32)C1 (centres undefined) | > 38 µM (inactive)
46 | Cc1cccc(NC(=O)Nc2ccc(S(N)(=O)=O)cc2)c1 | 4.36 µM
47 | COc1ccc(S(=O)(=O)Nc2ccc(NC(C)=O)cc2)cc1Cl | 26.6 µM
48 | Nc1nonc1N/N=C\c1ccccc1 | 4.88 µM
49 | O=c1c(O)c(-c2cc(O)c(O)c(O)c2)oc2cc(O)cc(O)c12 | 4.37 µM
50 | O=C(Nc1ccc(S(=O)(=O)N2CCCC2)cc1)c1ccccc1 | 8.57 µM
51 | O=C(N/N=C/c1c[nH]c2ccc(Br)cc12)C1CC1 | 7.7 µM
52 | O=C(NN=Cc1ccc(O)cc1)c1ccccc1NS(=O)(=O)c1cccs1 | 5.76 µM
53 | O=C(NNC(=O)C1CCN(S(=O)(=O)c2ccccc2C(F)(F)F)CC1)c1ccccc1O | 10.4 µM
54 | Cc1cccc(OC(C)C(=O)Nc2ccc3c(c2)OCCO3)c1 (centres undefined) | 15.1 µM
55 | CCc1nnc(NS(=O)(=O)c2ccc(NC(=S)NC(=O)/C=C/c3ccc([N+](=O)[O-])cc3)cc2)s1 | 4.73 µM
56 | O=C(N/N=C/c1ccncc1)c1cccc(NC(=O)c2ccc(Cl)cc2)c1 | 9.27 µM
57 | COC(=O)C[C@H]1CC[C@@H]2[C@@H](COc3ccc(NC(=O)Nc4cccc(C#N)c4)cc3C(=O)N2C)O1 | 7.79 µM
58 | CCN1C(=O)C(CC(=O)Nc2ccc(F)cc2)N(Cc2ccc3c(c2)OCO3)C1=S (centres undefined) | 2.83 µM
59 | O=C(CN1C(=O)NC(Cc2c[nH]c3ccccc23)C1=O)Nc1ccc(Br)cc1F (centres undefined) | 4.93 µM

— PubChem BioAssay AID687022 (Broad Institute, 2013)
